Test results: patent US11384115B2, “Nuclear sulfated oxysterol, potent regulator of lipid homeostasis, for therapy of hypercholesterolemia, hypertriglycerides, fatty liver diseases, and atherosclerosis” (Virginia Commonwealth University, priority 2004, dated 2022)

Experiments:
[1] = test system: SREBP-1; test: Western blot of SREBP-1 activation in HepG2 cells; assay type: cell-based, human; conditions: for mature forms of SREBP-1: HepG2, dose dependent
Procedure: FIGS. 18A-18D. Western blot analysis of SREBPs activation following 25HC3S or 25HC treatment in HepG2 cells. […] SREBP-1 and SREBP-2 protein levels in the cells were determined by Western blot analysis. The extracted protein (100 μg) was loaded onto each lane for each condition as indicated. The data represent a typical result from one of three independent experiments. The trends of the protein levels are highly reproducible.
Microsomal proteins (80 μg) were separated on a 7.5% SDS-polyacrylamide denaturing gel according to the method of Laemmli (14). Following SDS-PAGE (Hoefer Vertical Slab Gel Unit; Heofer, San Francisco, Calif.), proteins were electrophoretically transferred overnight (4° C.) to Immobilon-P membranes using a Hoefer Trans Blot Electrophoretic Transfer cell. The membranes were then blocked for 90 minutes (25° C.) in blocking buffer (PBS, pH 7.4, 0.1% Tween, 5% non-fat dry milk). Proteins were then incubated for 90 minutes (25° C.) or overnight (4° C.) with a rabbit polyclonal IgG (1:2500-1:20,000) against human SREBP-1, SREBP-2, or HMG CoA reductase. After washing, a secondary antibody (goat anti-rabbit IgG-Horse-radish peroxidase conjugate, 1:2500) was added to the blocking solution (25° C., 90 minutes). Protein bands were detected using the Amersham ECL plus Kit.

[2] = test system: LXR; conditions: macrophages, cited from earlier work
[3] = test system: IL-1β and TNFα release; test: ELISA analysis of LPS-induced cytokine releases from macrophages; assay type: cell-based, human; conditions: LPS 1 μg/ml, 24 hrs; for LPS-induced IL-1β release: concentration-dependent
Procedure: A total of 1×10^6 macrophages were treated with LPS (1 μg/ml) and/or different concentrations of 25HC or 25HC3S for 24 hrs. Supernatants were harvested and cytokines IL-1ß and TNF-α concentration were measured by enzyme-linked immunosorbent assay (ELISA) according to manufacturer's instruction (SuperArray Bioscience, Frederick Md.). SiRNA-mediated macrophage RNA interference

[4] = test system: TNFα and IL-1β mRNA; test: LPS-induced TNFα, IL-1β and NFκB mRNA by real-time RT-PCR in THP-1 macrophages; assay type: cell-based, human; conditions: for LPS-induced IL-1β mRNA levels / LPS-induced TNFα mRNA levels: 25 hours; for LPS-induced IL-1β mRNA levels: FIG. 28A; for LPS-induced TNFα mRNA levels: FIG. 28B
Procedure: FIGS. 28A and B. Addition of 25HC3S suppresses LPS-induced IL-1β (A) and TNFα (B) expression in macrophages. To study the effect of 25HC3S on LPS-induced TNFα and IL-1β expression and release, macrophages were treated with 1 μg/ml of LPS and different concentrations of 25HC3S and 25HC as indicated for 25 hours; mRNA levels of TNFα and IL-1β were determined by real time RT-PCR. The results represent mean SD. […] Both 25HC3S and 25HC repressed LPS-induced TNFα mRNA levels as shown in B.
Total RNA was isolated from THP-1 derived macrophages following treatments for 6 hrs otherwise as indicated using SV Total RNA Isolation Kit (Promega, Wisconsin, Wis.), which includes DNase treatment. Two microgram of total RNA was used for first-strand cDNA synthesis as recommended by manufacturer (Invitrogen, Carlsbad, Calif.). Real-time RT-PCR was performed using SYBR Green as indicator on ABI 7500 Fast Real-Time PCR System (Applied Biosystems, Foster City, Calif.). The final reaction mixture contained 10 ng of cDNA, 100 nM of each primer, 10 μl of 2×SYBR® Green PCR Master Mix (Applied Biosystems, Foster City, Calif.), and RNase-free water to complete the reaction mixture volume to 20 μl. All reactions were performed in triplicate. PCR was carried out for 40 cycles of 95° C. for 15 s and 60° C. for 1 min. The fluorescence was read during the reaction, allowing a continuous monitoring of the amount of PCR product. The data was normalized to internal control GAPDH.
pSilencer2.1-U6 neo siRNA expression vector and negative control for RNAi were purchased from Ambion, Inc. (Austin, Tex.). Three human PPARγ oligonucleotide sequences, […] (siRNA1, SEQ ID NO: 13), […] (siRNA2, SEQ ID NO: 14), and […] (siRNA3, SEQ ID NO: 15), were selected as specific siRNAs to target human PPARγ. Synthetic sense and antisense oligonucleotides were annealed by incubated at 90° C. for 3 min and then at 37° C. for 1 hr. The double stranded oligonucleotides were cloned into the BamH I-Hind III sites of the pSilencer2.1-U6 neo vector according manufacturer's protocol. The control RNA interference (RNAi) sequence was a randomly scrambled and was not found in the mouse, human, or rat genome databases. All of the constructs were confirmed by sequencing. THP-1 macrophages were transfected with a PPARγ siRNA or control RNAi using FugeneHD reagent according to the manufacturer's instructions (Roche Applied Science, Indianapolis, Ind.). After incubation for 4 hrs, the medium was changed with normal medium and compounds were added at appropriate concentrations as indicated. Cells were harvested after 48 hrs following the addition, and PPARγ protein levels were determined using western blot and mRNA levels of inflammatory response factors were measured by real time RT-PCR analysis.

[5] = test system: HMG CoA reductase mRNA; test: HMG CoA reductase mRNA by real-time RT-PCR in primary human hepatocytes; assay type: cell-based; parameters: effect on levels of HMG CoA reductase mRNA: dose or concentration left out as unconfirmed; conditions: for inhibition of HMG CoA reductase mRNA: PHH cultured in serum-free media
Procedure: Primary human hepatocytes were purchased from an NIH-approved facility (Liver Tissue Procurement Distribution System, Univ. of Minnesota). Cells were obtained from a random sampling of males and females 18-69 yr of age. Experiments were performed as cells became available to corroborate findings in experiments conducted in HepG2 cells as previous described (13).
Total RNA was isolated from HepG2 cells using SV Total RNA Isolation Kit (Promega). Two μg of total RNA was used for first-strand cDNA synthesis as recommended by manufacture (Invitrogen). Real-time PCR was performed using SYBR Green on ABI 7500 Fast Real-Time PCR System (Applied Biosystems). The final reaction mixture contained 5 ng of cDNA, 100 nM of each primer, 10 μl of 2×SYBR® Green PCR Master Mix (Applied Biosystems), and RNase-free water to complete the reaction mixture volume to 20 μl. All reactions were performed in triplicate. The PCR was carried out for 40 cycles at 95° C. for 15 s and 60° C. for 1 min. The fluorescence was read during the reaction, allowing a continuous monitoring of the amount of PCR product. The data was normalized to internal control-β-actin or GAPDH mRNA. The sequences of primers for HMG CoA reductase used in real-time PCR are […] (SEQ ID NO: 1) (Forward) and […] (SEQ ID NO: 2) (Reverse).

[6] = test system: NFκB; test: Western blot of nuclear NFκB levels in THP-1 macrophages; assay type: cell-based, human
Procedure: A, THP-1 macrophages were treated with 25HC3S or 25HC for 24 hrs followed by addition or no addition of TNFα for another 3 hrs. The nuclear NFκB levels were analyzed by Western blot. The data represent one typical result out of three experiments.
Fifty μg of total cell lysates or nuclear protein extracts, otherwise as indicated, were separated on 10% SDS-PAGE gels and transferred onto a polyvinylidene difluoride membrane as described previously [31]. Membranes were blocked in TBS containing 5% of nonfat dried milk for 1 hr. The specific proteins were determined by incubation with specific antibodies against human PPAR or IκB overnight at 4° C. with shaking. After washing, the membrane was incubated in a 1:3,000 dilution of a secondary antibody (goat anti-rabbit or anti-mouse IgG-HP conjugate; Bio-Rad, Hercules, Calif.) at room temperature for 1 hr in the washing buffer (Tris buffered solution containing 0.5% Tween 20). The protein bands were visualized using Western Lightening Chemiluminescence Reagent (Perkin-Elmer, Waltham, Mass.). The expression levels were normalized to Lamin.

| Compound | mature forms of SREBP-1 [1] | inhibition of SREBP-1 activation ([1]; HepG2, media containing 50 μM of mevinolin and 0.5 μM of mevalonate) | LXR activities and its targeting gene expressions [2] | LPS-induced release of TNFα [3] | LPS-induced IL-1β release [3] | LPS-induced IL-1β mRNA levels ([4]; 1 μg/ml LPS) | LPS-induced TNFα mRNA levels ([4]; 1 μg/ml LPS) | LPS-induced TNFα, IL-1β and NFκB expression ([4]; 12 μM, 48 hrs, control macrophages) | suppression of IL-1 and TNFα expression in the presence of T0070907 ([4]; PPARγ antagonist T0070907) | LPS-induced TNFα, IL-1β and NFκB expression in siRNA-expressed cells ([4]; PPARγ knock down macrophages) | suppression of LPS-induced IL-1β mRNA levels ([4]; macrophages, 1 μg/ml LPS) [fold] | inhibition of HMG CoA reductase mRNA [5] [%] | nuclear NFκB levels ([6]; in the absence of TNFα, 24 hrs) | nuclear NFκB levels ([6]; in the presence of TNFα) | increase of LXR targeting gene expressions, ABCA1/G1 and SREBP-1 mRNAs ([2]; in 6 hrs) | increase of LPS-induced IL-1β mRNA levels ([4]; macrophages, 1 μg/ml LPS) [fold] | effect on levels of HMG CoA reductase mRNA ([5]; PHH, serum-free media) [%] |
| --- | --- | --- | --- | --- | --- | --- | --- | --- | --- | --- | --- | --- | --- | --- | --- | --- | --- |
| C[C@H](CCCC(C)(C)O)[C@H]1CC[C@H]2[C@@H]3CC=C4C[C@@H](OS(=O)(=O)O)CC[C@]4(C)[C@H]3CC[C@]12C [25HC3S, 5-cholesten-3β, 25-diol 3-sulphate] | decreases | more potent inhibition on SREBP-1 activation than 25HC | decreases | represses | significantly decreased | significantly suppressed | repressed | significantly suppressed | significantly be blunted | failed in suppressing | 2 | 75 | decreased | failed to decrease | – | – | – |
| C[C@H](CCCC(C)(C)O)[C@H]1CC[C@H]2[C@@H]3CC=C4C[C@@H](O)CC[C@]4(C)[C@H]3CC[C@]12C [25HC, 25-hydroxycholesterol, reference compound] | decreases | – | – | – | increased | significantly increased | repressed | – | – | – | – | 15 | increased | significantly increased | 5-50 fold | 2 | ~15 |
